The values below come from patent US20090182033A1, “Cyclic Amine Derivatives and Their Uses” (ARGENTA DISCOVERY LTD., priority 2005, published 2009).

For the assay, the target named is T1, M3 muscarinic receptor (Homo sapiens, UniProt P20309).
T1 construct: purchased
Nature of the assay: Muscarinic receptor radioligand binding assay ([3H]-NMS). The conditions noted are these: cell membranes expressing the human muscarinic receptors, 3 hours incubation, read-out: binding affinity Ki. Here is the method: The inhibitory effects of compounds of the present invention at the M3 muscarinic receptor were determined by the following binding assays:
Radioligand binding studies utilising [^3H]-N-methyl scopolamine ([^3H]-NMS) and commercially available cell membranes expressing the human muscarinic receptors (M2 and M3) were used to assess the affinity of muscarinic antagonists for M2 and M3 receptors. Membranes in TRIS buffer were incubated in 96-well plates with [^3H]-NMS and M3 antagonist at various concentrations for 3 hours. Membranes and bound radioligand were then harvested by filtration and allowed to dry overnight. Scintillation fluid was then added and the bound radioligand counted using a Can berra Packard Topcount scintillation counter

T1 sequence (P20309 whole entry): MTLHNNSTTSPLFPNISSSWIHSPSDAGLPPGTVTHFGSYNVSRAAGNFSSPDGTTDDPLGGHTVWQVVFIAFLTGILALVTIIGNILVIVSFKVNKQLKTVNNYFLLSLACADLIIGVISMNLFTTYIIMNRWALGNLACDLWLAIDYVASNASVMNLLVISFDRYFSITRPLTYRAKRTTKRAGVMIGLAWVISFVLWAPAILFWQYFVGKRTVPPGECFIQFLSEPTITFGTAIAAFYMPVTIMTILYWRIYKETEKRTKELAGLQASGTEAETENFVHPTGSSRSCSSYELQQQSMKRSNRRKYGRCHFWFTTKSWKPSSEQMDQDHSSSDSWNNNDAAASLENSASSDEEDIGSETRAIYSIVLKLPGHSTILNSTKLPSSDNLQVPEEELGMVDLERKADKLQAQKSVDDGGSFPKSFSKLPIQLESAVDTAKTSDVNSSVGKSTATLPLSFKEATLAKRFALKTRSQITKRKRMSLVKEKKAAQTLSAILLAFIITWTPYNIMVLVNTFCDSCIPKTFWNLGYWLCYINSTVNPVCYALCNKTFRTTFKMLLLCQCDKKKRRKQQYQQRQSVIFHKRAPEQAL

Usually Ki stands for the dissociation constant of the complex between target and ligand, obtained from inhibition or displacement. Consider `C[N+](C)(CCCc1ccccc1)C1CC2CCC1C2OCc1ccccc1` [Example 6, Anti (1S, 2S) (7-benzyloxybi-cyclo[2.2.1]hept-2-yl)-dimethyl-(3-phenyl-propyl)-ammonium bromide], for which the Ki is under 100 nM.
